This test concerns the target T1, 14-3-3ζ/SOS1 peptide (Homo sapiens, UniProt P63104).
T1 construct: made in house; host or cells: NiCo21 (DE3) E. coli
Kind of test: FA peptide screen, 14-3-3ζ titration to client peptide and compound: SOS1. It is filed as binding. The note with it: 250 μM compound, 100 nM peptide; +1 Ala. The method, then:
Since the hub protein 14-3-3 binds to hundreds of phosphoprotein partners, selectivity of PPI stabilization is a major challenge. The interplay of chemical reactivity, and the topology and functionality of the composite binding pocket shaped by 14-3-3 and Tau potentially provide entries towards selective stabilization. […] Here, 14-3-3ζ was titrated to a constant concentration of client peptide (100 nM) and compound (250 μM) to determine the SF250μM values for the particular 14-3-3 PPI. A variety of 14-3-3 binding proteins was represented in this client panel whereby the size and hydrophobicity of the +1 amino acid were varied. […]
chromatography (HisTrap high performance cartridges, Cytiva). […] Dialyzed protein was concentrated to ∼40 mg/mL, analyzed by Q -Tof LC/MS, and aliquots were flash -frozen for storage at −80 °C. […]
0.1% (v/v) Tween20, 0.1% (w/v) BSA). […] Measurements were performed directly after plate preparation, using a Tecan SPARK plate reader at room temperature ( λex: 485±20 nm; λem: 535±25 nm; mirror: automatic; flashes: 30; settle time: 1 ms; gain: optimal; Z -position: calculated from well). […] All data were analyzed using GraphPad Prism (10.0.1) and fitted with a four -parameter logistic model (4PL) to determine binding affinities (dissociation constant, KD). […]
Fluorescence Anisotropy – peptide screen […]

T1 sequence (P63104 whole entry, other chains not shown): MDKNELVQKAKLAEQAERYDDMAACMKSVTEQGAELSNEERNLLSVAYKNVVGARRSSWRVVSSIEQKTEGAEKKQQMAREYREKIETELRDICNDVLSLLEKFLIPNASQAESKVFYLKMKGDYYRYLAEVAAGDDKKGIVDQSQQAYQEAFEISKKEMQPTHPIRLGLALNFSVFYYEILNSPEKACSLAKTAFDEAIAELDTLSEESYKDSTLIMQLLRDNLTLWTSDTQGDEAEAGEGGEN

As for `CCc1ccc(-c2nccn2-c2ccc(C=O)c(Br)c2)cc1` [Compound 18], the “stabilization of 14-3-3/SOS1 peptide (in words)” value is “minor off-target effects”.
